According to patent US11925667B2, “Engineered therapeutic probiotic system and method” (priority 2018, dated 2024):

Columns and labels:
Assay type in all cases: biochemical
[1] = target: T1, Brevicoryne brassicae myrosinase BMY1 (Brevicoryne brassicae, UniProt Q95X01); experiment: Myrosinase activity assay (glucose release from sinigrin hydrolysis), BMY1
T1 sequence (Q95X01 1-464): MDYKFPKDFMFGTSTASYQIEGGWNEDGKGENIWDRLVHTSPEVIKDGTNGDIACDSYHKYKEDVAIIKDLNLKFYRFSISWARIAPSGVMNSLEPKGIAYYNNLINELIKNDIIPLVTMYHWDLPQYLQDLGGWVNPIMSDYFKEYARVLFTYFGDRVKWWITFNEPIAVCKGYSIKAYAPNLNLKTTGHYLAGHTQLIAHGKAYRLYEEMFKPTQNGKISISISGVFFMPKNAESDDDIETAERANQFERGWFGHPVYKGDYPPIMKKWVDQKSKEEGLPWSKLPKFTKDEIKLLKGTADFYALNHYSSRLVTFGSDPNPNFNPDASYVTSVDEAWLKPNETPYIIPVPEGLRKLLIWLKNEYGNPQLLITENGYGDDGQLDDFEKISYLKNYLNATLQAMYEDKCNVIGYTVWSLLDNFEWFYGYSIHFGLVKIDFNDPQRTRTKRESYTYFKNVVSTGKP
Procedure: (§1) Screening for improved β-thioglucosidase. The activity and stability of myrosinase, a β-thioglucosidase that hydrolyzes glucosinolate to sulforaphane, varies at differing pH and temperature; in a preferred embodiment the selected enzyme needs to function under physiological colorectal conditions. The healthy colon pH averages 6.6, while it is 7.0 and 6.7 in patients with adenoma and carcinoma, respectively. In addition, the temperature of the human intestinal tract ranges from 36° C. to 40° C. depending on the individual's metabolic state. In the illustrative example five plant-derived myrosinase orthologues with minimal glycosylation sites and the absence of the co-factor-binding sites using the BLAST search and the Enzyme Function Initiative-Enzyme Similarity Tool (EFI-EST), are compared to the well-characterized myrosinases from Brevicoryne brassicae (BMY1) and Arabidopsis thaliana (TGG1) (FIG. 2a and FIG. 7).
(§2) Gene cloning, protein expression and purification. Myrosinase genes are optimized for E. coli expression and cloned into the pET28b expression vector. The plasmids are transformed into E. coli BL21 (DE3) cultured in lysogeny broth (LB) (BD, Le Pont de Claix, France) at 37° C., 225 rpm to OD600 0.6 followed by 0.5 mM isopropyl β-D-1-thiogalactopyranoside (IPTG) induction at 16° C., 180 rpm for 16 hours. Cells are harvested, resuspended in lysis buffer (50 mM Tris-Cl, 300 mM NaCl, 10% glycerol, 1 mM dithiothreitol [DTT], pH 8.0) and lysed using Emulsiflex C-3 (Avestin). Expressed myrosinases are purified by IMAC Ni-NTA purification followed by Hi-Load Superdex 200 size exclusion column chromatography (GE, Uppsala, Sweden). The purified protein is concentrated and stored at −80° C. Pilot scale protein purification and enzymatic assay is conducted.
(§3) Myrosinase screening assay. The enzymatic reaction is measured for the release of glucose resulting from sinigrin hydrolysis. The reaction is conducted in sodium phosphate-buffered solution supplied in the Amplex® Red Glucose/Glucose Oxidase Assay Kit (Thermo Fisher Scientific, Geel, Belgium). The reaction buffer is prepared at different pH values (6.0, 6.5, 7.4 and 8.0) and at different reaction temperatures (34° C., 37° C., and 40° C.). The reaction is prepared using 0.1 μM purified myrosinase added to 1× Amplex® Red Glucose Assay reaction mixture and was kick-started with the corresponding concentration of sinigrin. The reaction can be measured at 560 nm absorbance and fluorescence (λex=540 nm, λem=590 nm) using a Synergy H1 Multi-Mode microtiter plate reader (BioTek®, Winooski, USA). The reaction initial velocity (VO) is determined and fitted into a Michaelis-Menten curve. Vmax and KM are determined by fitting into the Michaelis-Menten equation (Eq. 1) using GraphPad Prism Software. ^v=Vmax*[Sinigrin]/(KM+[Sinigrin]) (Eq.1)
(§4) Table S1|Myrosinase activity assay screening under various pH and temperature conditions (n=3 independent experiments, each measurement performed in triplicates; mean[…].).

[2] = target: Arabidopsis thaliana myrosinase TGG1 (Arabidopsis thaliana, UniProt P37702); experiment: Myrosinase activity assay (glucose release from sinigrin hydrolysis), TGG1
Procedure: as §1, §2, §3, §4

[3] = test system: Brassica oleacea myrosinase A6; experiment: Myrosinase activity assay (glucose release from sinigrin hydrolysis), A6
From the text: (§5) In a preferred embodiment, the myrosinases derived from Armoracia rusticana (I1) and Brassica oleacea (A6) have a better stability and catalytic efficiency in various temperatures and pH values when compared with those derived from BMY1 and TGG1 (Table 1). In a preferred illustrative embodiment I1 myrosinase is selected owing to its Km value and improved kcat at the colorectal ambient temperature and pH (FIG. 2c, 2d and Table 1). By comparing the modeled-I1 myrosinase protein structure against that of the BMY1 myrosinase, the critical side chain residues involved in glucose-ring recognition and the glutamic acid that served as a nucleophile during catalysis are conserved. According to the claimed invention the improved catalytic efficiency of the I1 myrosinase is correlated to its pI value (pI=7.90) and the overall positively charged surface (FIG. 8) that contributes to better structural stability.
as §2, §3, §4

[4] = test system: myrosinase C9 (plant-derived myrosinase orthologue); experiment: Myrosinase activity assay (glucose release from sinigrin hydrolysis), C9
Procedure: as §1, §2, §3, §4

[5] = target: T2, Armoracia rusticana myrosinase I1, SEQ ID NO: 6 (Armoracia rusticana, UniProt I1TIJ2); experiment: Myrosinase activity assay (glucose release from sinigrin hydrolysis), I1
T2 construct: elsewhere used as YebF-I1 fusion
T2 sequence (I1TIJ2 23-510): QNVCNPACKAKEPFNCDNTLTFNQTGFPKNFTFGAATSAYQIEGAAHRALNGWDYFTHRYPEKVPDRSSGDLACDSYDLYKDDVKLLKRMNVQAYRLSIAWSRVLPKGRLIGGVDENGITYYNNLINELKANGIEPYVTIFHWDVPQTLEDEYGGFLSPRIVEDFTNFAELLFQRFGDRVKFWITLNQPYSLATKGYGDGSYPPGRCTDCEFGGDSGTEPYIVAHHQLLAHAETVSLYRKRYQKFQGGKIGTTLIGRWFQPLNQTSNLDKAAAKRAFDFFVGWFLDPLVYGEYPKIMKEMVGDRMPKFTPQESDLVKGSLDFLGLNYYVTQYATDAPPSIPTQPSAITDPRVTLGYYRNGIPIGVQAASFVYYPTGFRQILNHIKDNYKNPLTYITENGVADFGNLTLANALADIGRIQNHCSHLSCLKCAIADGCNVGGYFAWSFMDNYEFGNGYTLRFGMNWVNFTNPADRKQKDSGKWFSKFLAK
From the text: as §5, §2, §3, §4

[6] = test system: myrosinase Q5 (plant-derived myrosinase orthologue); experiment: Myrosinase activity assay (glucose release from sinigrin hydrolysis), Q5
Procedure: as §1, §2, §3, §4

[7] = test system: myrosinase Q9 (plant-derived myrosinase orthologue); experiment: Myrosinase activity assay (glucose release from sinigrin hydrolysis), Q9
Procedure: as §1, §2, §3, §4

Chain of Arabidopsis thaliana myrosinase TGG1 (P37702 20-541): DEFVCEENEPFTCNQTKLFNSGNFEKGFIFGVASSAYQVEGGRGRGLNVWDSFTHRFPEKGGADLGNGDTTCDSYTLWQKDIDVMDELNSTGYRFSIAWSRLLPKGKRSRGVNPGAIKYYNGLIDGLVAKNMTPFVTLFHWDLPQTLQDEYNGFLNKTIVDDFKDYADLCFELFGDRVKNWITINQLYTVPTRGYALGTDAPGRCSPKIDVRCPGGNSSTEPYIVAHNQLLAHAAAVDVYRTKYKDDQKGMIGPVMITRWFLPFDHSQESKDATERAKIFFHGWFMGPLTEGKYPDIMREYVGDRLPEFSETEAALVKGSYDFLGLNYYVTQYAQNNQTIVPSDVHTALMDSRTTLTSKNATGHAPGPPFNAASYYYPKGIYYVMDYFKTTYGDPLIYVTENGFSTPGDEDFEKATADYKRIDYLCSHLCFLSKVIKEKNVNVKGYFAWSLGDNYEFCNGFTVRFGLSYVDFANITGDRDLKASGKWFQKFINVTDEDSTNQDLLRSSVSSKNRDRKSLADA

C=CC/C(=N/OS(=O)(=O)O)S[C@@H]1O[C@H](CO)[C@@H](O)[C@H](O)[C@H]1O [sinigrin]
kcar ([1]; pH 6.0, 37° C.): 5.7 ± 0.8 s⁻¹ | kcar ([1]; pH 6.5, 37° C.): 11.8 ± 0.4 s⁻¹ | kcar ([1]; pH 7.4, 34° C.): 6.9 ± 0.4 s⁻¹ | kcar ([1]; pH 7.4, 37° C.): 6.0 ± 0.7 s⁻¹ | kcar ([1]; pH 7.4, 40° C.): 9.1 ± 0.8 s⁻¹ | kcar ([1]; pH 8.0, 37° C.): 5.6 ± 0.6 s⁻¹ | kcar ([2]; pH 6.0, 37° C.): 10.2 ± 0.6 s⁻¹ | kcar ([2]; pH 6.5, 37° C.): 8.6 ± 1.6 s⁻¹ | kcar ([2]; pH 7.4, 34° C.): 6.9 ± 1.6 s⁻¹ | kcar ([2]; pH 7.4, 37° C.): 6.4 ± 1.1 s⁻¹ | kcar ([2]; pH 7.4, 40° C.): 6.5 ± 0.2 s⁻¹ | kcar ([2]; pH 8.0, 37° C.): 4.3 ± 0.7 s⁻¹ | Km ([3]; pH 6.0, 37° C.): 68 ± 2 µM | kcar ([3]; pH 6.0, 37° C.): 6.6 ± 1.3 s⁻¹ | Km ([3]; pH 6.5, 37° C.): 187 ± 13 µM | kcar ([3]; pH 6.5, 37° C.): 15.0 ± 1.5 s⁻¹ | Km ([3]; pH 7.4, 34° C.): 47 ± 5 µM | kcar ([3]; pH 7.4, 34° C.): 7.2 ± 1.3 s⁻¹ | Km ([3]; pH 7.4, 37° C.): 44 ± 4 µM | kcar ([3]; pH 7.4, 37° C.): 5.2 ± 0.9 s⁻¹ | Km ([3]; pH 7.4, 40° C.): 189 ± 39 µM | kcar ([3]; pH 7.4, 40° C.): 9.7 ± 1.3 s⁻¹ | Km ([3]; pH 8.0, 37° C.): 142 ± 22 µM | kcar ([3]; pH 8.0, 37° C.): 9.3 ± 1.2 s⁻¹ | Km ([4]; pH 6.0, 37° C.): 439 ± 97 µM | kcar ([4]; pH 6.0, 37° C.): 5.6 ± 0.8 s⁻¹ | Km ([4]; pH 6.5, 37° C.): 290 ± 31 µM | kcar ([4]; pH 6.5, 37° C.): 9.0 ± 0.9 s⁻¹ | Km ([4]; pH 7.4, 34° C.): 384 ± 28 µM | kcar ([4]; pH 7.4, 34° C.): 11.2 ± 2.4 s⁻¹ | Km ([4]; pH 7.4, 37° C.): 38 ± 2 µM | kcar ([4]; pH 7.4, 37° C.): 3.4 ± 0.6 s⁻¹ | Km ([4]; pH 7.4, 40° C.): 352 ± 68 µM | kcar ([4]; pH 7.4, 40° C.): 9.0 ± 0.9 s⁻¹ | Km ([4]; pH 8.0, 37° C.): 842 ± 80 µM | kcar ([4]; pH 8.0, 37° C.): 10.7 ± 1.3 s⁻¹ | kcar ([5]; pH 6.0, 37° C.): 6.6 ± 0.7 s⁻¹ | kcar ([5]; pH 6.5, 37° C.): 7.9 ± 1.1 s⁻¹ | kcar ([5]; pH 7.4, 34° C.): 3.4 ± 0.7 s⁻¹ | kcar ([5]; pH 7.4, 37° C.): 15.0 ± 1.5 s⁻¹ | kcar ([5]; pH 7.4, 40° C.): 15.2 ± 1.5 s⁻¹ | kcar ([5]; pH 8.0, 37° C.): 6.6 ± 3.1 s⁻¹ | Km ([6]; pH 6.0, 37° C.): 184 ± 15 µM | kcar ([6]; pH 6.0, 37° C.): 4.6 ± 1.1 s⁻¹ | Km ([6]; pH 6.5, 37° C.): 127 ± 21 µM | kcar ([6]; pH 6.5, 37° C.): 4.9 ± 1.2 s⁻¹ | Km ([6]; pH 7.4, 34° C.): 225 ± 13 µM | kcar ([6]; pH 7.4, 34° C.): 2.9 ± 1.4 s⁻¹ | Km ([6]; pH 7.4, 37° C.): 25 ± 7 µM | kcar ([6]; pH 7.4, 37° C.): 2.1 ± 1.6 s⁻¹ | Km ([6]; pH 7.4, 40° C.): 49 ± 14 µM | kcar ([6]; pH 7.4, 40° C.): 3.7 ± 1.6 s⁻¹ | Km ([6]; pH 8.0, 37° C.): 154 ± 24 µM | kcar ([6]; pH 8.0, 37° C.): 2.8 ± 1.1 s⁻¹ | Km ([7]; pH 6.0, 37° C.): 111 ± 3 µM | kcar ([7]; pH 6.0, 37° C.): 3.0 ± 0.6 s⁻¹ | Km ([7]; pH 6.5, 37° C.): 291 ± 5 µM | kcar ([7]; pH 6.5, 37° C.): 7.8 ± 0.8 s⁻¹ | kcar ([7]; pH 7.4, 34° C.): 13.0 ± 3.5 s⁻¹ | kcar ([7]; pH 7.4, 37° C.): 3.8 ± 1.5 s⁻¹ | Km ([7]; pH 7.4, 40° C.): 893 ± 23 µM | kcar ([7]; pH 7.4, 40° C.): 12.3 ± 3.9 s⁻¹ | Km ([7]; pH 8.0, 37° C.): 473 ± 6 µM | kcar ([7]; pH 8.0, 37° C.): 4.4 ± 1.0 s⁻¹
